Results from patent US12729388B2, “Methods and systems for producing cellulosic ethanol by biomass saccharification and fermentation” (ZHEJIANG HUAKANG PHARMACEUTICAL CO., LTD., priority 2021, dated 2026).

Test system: cellulase Cellic CTec 2
Experiment: Validation experiment of the inhibitory effect of glucose and ethanol on the enzymatic hydrolysis reaction
Assay type: biochemical
Conditions: Group C: 50 g/L ethanol externally added, corn cob waste 15% dry substrate, cellulase 4% of dry substrate, pH 5.0~6.0, 50° C., 300 rpm
Procedure: Validation experiment of the inhibitory effect of glucose and ethanol on the enzymatic hydrolysis reaction. A reaction system was prepared using a citric acid buffer solution with a concentration of 0.1 mol/L. The citric acid buffer solution was added to a corn cob waste system in which a content of the biomass feedstock was 15% of a dry substrate, a pH of the mixture was maintained at 5.0~6.0, and cellulase […] a content of 4% of the dry substrate was added to the mixture to prepare three groups of 1 L reaction systems. [table] The three reaction systems were subjected to enzymatic hydrolysis at 50° C. for 72 hours under a condition of stirring at 300 rpm. Samples were taken from each reaction system every 12 hours to measure an amount of glucose released by the enzymatic hydrolysis, and results are shown in FIG. 3. FIG. 3 is a schematic diagram illustrating that glucose release concentration changes over time in an enzymatic hydrolysis system with external addition of glucose and ethanol according to some embodiments of the present disclosure.

CCO [ethanol]
amount of glucose released during the 72-hour enzymatic hydrolysis, lower than that of the control Group A: 8%
